Patent publication US20250154109A1, “SODIUM CHANNEL BLOCKING COMPOUNDS, DERIVATIVES THEREOF, AND METHODS OF THEIR USE” (LATIGO BIOTHERAPEUTICS, INC, priority 2022, published 2025)
Structures can show the parent of a compound that is named as a salt. Where two headings read alike, the source gives them in different places.

Biological target: human Nav1.8 (Homo sapiens, UniProt Q9Y5Y9)
Experiment: SyncroPatch384PE assay (automated patch clamp)
Format: cell-based
Details: human Nav1.8/b3 CHO cells
Description: Compounds were tested on recombinant human Nav1.8/b3 stably transfected CHO cells using the SyncroPatch384PE system (Nanion Technologies), an automated patch clamp device. Cells were cultured at 37° C./5% CO2 in Ham's F-12 supplemented with 10% fetal bovine serum, 100 U/mL penicillin G sodium, […] streptomycin sulfate and selection antibiotics (0.01 mg/mL Blasticidin, 0.4 mg/mL Zeocin and 0.25 mg/mL Hygromycin). On the day of the recordings, cells in culture dishes were washed twice with Hank's Balanced Salt Solution (HBSS) and treated with Accutase for approximately 20 minutes. Immediately before use in the SynchroPatch384PE using an 8-hole NPC-384 chip, the cells were washed in HBSS to remove the Accutase and re-suspended in extracellular solution. All experiments were performed at ambient temperature. Intracellular solution contained (mM): CsCl, 50; CsF, 90; MgCl2, 5; EGTA, 1; HEPES, 10; pH adjusted to 7.2 with CsOH. Extracellular solution contained (mM): NaCl, 137; KCl, 4.0; CaCl2), 3.8; MgCl2, 1; HEPES, 10; Glucose, 10; pH adjusted to 7.4 with NaOH. 100 nM tetrodotoxin (TTX) was added to the extracellular solution to block endogenous TTX-sensitive sodium currents.
Compounds were tested in quadruplicate in 0.3% DMSO and 0.03% pluronic Acid. Compounds were diluted 1:3.33 in extracellular solution to create an 8-point concentration response curve. Each plate contained a historical positive control and up to ten compounds. 300 μM tetracaine and 0.3% DMSO+0.03% pluronic acid were used as high and low controls respectively.
Whole cell patch clamp recordings were conducted according to Nanion's standard procedure for SyncroPatch384PE®. Cells were held at a holding potential of −120 mV. A depolarization step to 10 mV for 30 ms was applied (P1 measurement), followed by a hyperpolarization step to −100 mV for 100 ms. An inactivation step at −35 mV for 10 sec was applied before stepping to −100 mV for 20 ms, followed by a step to 10 mV for 30 ms (P2 measurement) and then back to −100 mV for 30 ms. Sweep interval was 15 sec. Following establishment of the whole-cell configuration in extracellular solution, cells were washed in extracellular solution containing 0.3% DMSO and 0.03% pluronic acid to stabilize the baseline current. Compounds were then applied by the SynchroPatch384 PE system into each well and the current was recorded for five minutes in extracellular solution, followed by application of tetracaine to achieve full block at the end of experiment. The potency of the compounds was assessed on two read-outs, resting state block (P1 measurement) or inactivated state block (P2 measurement) to obtain IC50 values. Values were normalized to high (tetracaine) and low (DMSO+pluronic acid) controls.
Examples 1 to 219 and Examples 225 to 236 are assayed using SyncroPatch384PE assay described above.

[1] = inactivated state block (P2 measurement), read-out: P2 IC50
[2] = resting state block (P1 measurement), read-out: P1 IC50

Chain of human Nav1.8 (Q9Y5Y9 whole entry): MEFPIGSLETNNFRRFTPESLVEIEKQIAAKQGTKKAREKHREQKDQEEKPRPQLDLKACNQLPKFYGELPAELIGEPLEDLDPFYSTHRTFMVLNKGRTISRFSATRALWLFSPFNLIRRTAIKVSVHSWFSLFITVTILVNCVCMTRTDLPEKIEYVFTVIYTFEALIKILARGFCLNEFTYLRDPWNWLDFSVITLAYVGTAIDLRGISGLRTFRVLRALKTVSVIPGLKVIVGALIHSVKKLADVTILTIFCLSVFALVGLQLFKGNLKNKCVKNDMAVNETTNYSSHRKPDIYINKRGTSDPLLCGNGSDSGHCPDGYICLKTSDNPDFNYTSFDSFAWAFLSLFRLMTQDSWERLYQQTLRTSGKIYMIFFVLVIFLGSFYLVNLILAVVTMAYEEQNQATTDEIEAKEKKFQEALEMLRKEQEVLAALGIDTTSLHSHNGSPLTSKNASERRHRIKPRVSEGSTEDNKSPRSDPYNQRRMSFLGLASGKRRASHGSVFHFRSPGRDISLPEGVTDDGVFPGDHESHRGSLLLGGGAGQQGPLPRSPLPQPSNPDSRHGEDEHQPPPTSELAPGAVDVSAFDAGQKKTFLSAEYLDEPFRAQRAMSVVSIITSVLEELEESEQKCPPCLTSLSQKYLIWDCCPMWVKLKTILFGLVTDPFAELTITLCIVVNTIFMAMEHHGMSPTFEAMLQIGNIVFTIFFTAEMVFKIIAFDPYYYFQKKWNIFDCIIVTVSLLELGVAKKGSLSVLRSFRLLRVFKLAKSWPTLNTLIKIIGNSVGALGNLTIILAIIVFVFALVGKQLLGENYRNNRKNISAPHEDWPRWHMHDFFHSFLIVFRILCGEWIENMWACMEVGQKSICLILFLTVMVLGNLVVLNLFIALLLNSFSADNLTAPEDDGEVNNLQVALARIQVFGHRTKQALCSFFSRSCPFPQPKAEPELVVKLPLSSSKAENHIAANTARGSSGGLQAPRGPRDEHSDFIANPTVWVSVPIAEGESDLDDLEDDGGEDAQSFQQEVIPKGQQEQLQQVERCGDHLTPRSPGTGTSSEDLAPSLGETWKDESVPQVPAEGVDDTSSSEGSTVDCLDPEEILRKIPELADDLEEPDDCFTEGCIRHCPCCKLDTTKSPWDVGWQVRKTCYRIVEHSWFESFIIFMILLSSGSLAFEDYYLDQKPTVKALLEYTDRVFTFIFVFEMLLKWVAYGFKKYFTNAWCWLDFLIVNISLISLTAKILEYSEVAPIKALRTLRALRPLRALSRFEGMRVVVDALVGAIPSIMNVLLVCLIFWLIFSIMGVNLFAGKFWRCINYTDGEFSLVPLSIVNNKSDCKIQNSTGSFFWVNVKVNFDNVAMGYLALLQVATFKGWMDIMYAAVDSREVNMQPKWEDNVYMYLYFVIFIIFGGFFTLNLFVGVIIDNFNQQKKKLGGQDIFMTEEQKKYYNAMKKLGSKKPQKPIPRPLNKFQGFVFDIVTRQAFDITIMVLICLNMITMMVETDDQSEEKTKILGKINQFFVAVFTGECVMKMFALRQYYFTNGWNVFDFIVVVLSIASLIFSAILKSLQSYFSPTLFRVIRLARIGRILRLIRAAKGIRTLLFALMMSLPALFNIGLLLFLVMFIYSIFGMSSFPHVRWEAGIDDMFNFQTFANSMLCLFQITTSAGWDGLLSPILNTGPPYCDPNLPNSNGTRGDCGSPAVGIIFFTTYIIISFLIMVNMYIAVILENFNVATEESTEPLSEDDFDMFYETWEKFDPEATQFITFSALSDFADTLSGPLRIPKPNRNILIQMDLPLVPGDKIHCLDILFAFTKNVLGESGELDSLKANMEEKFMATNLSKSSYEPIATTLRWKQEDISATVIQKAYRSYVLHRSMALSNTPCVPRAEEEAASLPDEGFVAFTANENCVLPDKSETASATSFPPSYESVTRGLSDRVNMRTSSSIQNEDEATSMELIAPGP

| Structure (SMILES) | IC50 [1] | IC50 [2] |
| --- | --- | --- |
| Cc1c(-c2cnn(C(C)C)c2)cnc(N2CCCC(F)(F)CC2)c1C(=O)Nc1cccc([S@](C)(=N)=O)c1 [Example 160, (R)-2-(4,4-difluoroazepan-1-yl)-5-(1-isopropyl-1H-pyrazol-4-yl)-4-methyl-N-(3-(S-methylsulfonimidoyl)phenyl)nicotinamide] | 5 to 50 nM | 5 to 50 nM |
| Cc1c(-c2cccc(F)c2)cnc(N2CCCC(F)(F)CC2)c1C(=O)Nc1cccc([S@@](C)(=N)=O)c1 [Example 111, (S)-2-(4,4-difluoroazepan-1-yl)-5-(3-fluorophenyl)-4-methyl-N-(3-(S-methylsulfonimidoyl)phenyl)nicotinamide] | ≤ 5 nM | ≤ 5 nM |
| Cc1ccsc1-c1cnc(N2CCCC(F)(F)CC2)c(C(=O)Nc2cccc(S(C)(=N)=O)c2)c1C (stereo not shown) [Example 113, 2-(4,4-difluoroazepan-1-yl)-4-methyl-N-(3-(S-methylsulfonimidoyl)phenyl)-5-(3-methylthiophen-2-yl)nicotinamide] | ≤ 5 nM | ≤ 5 nM |
| Cc1c(N2CC3(COC3)C2)cnc(N2CCCC(F)(F)CC2)c1C(=O)Nc1cccc([S@@](C)(=N)=O)c1 [Example 90, (S)-2-(4,4-difluoroazepan-1-yl)-4-methyl-N-(3-(S-methylsulfonimidoyl)phenyl)-5-(2-oxa-6-azaspiro[3.3]heptan-6-yl)nicotinamide] | 100 to 200 nM | 100 to 200 nM |
| Cc1c(-c2cnn(C)c2)cnc(N2CCCC(F)(F)CC2)c1C(=O)Nc1ccc(F)c([S@@](C)(=N)=O)c1 [Example 213, (S)-2-(4,4-difluoroazepan-1-yl)-N-(4-fluoro-3-(S-methylsulfonimidoyl)phenyl)-4-methyl-5-(1-methyl-1H-pyrazol-4-yl)nicotinamide] | 100 to 200 nM | 100 to 200 nM |
| Cc1c(-c2cnn(C)c2)nnc(N2CCCC(F)(F)CC2)c1C(=O)NC12CC(C(N)=O)(C1)C2 [Example 141, N-(3-carbamoylbicyclo[1.1.1]pentan-1-yl)-3-(4,4-difluoroazepan-1-yl)-5-methyl-6-(1-methyl-1H-pyrazol-4-yl)pyridazine-4-carboxamide] | ≤ 5 nM | ≤ 5 nM |
| COc1ccc(-c2cnc(N3CCCC(F)(F)CC3)c(C(=O)Nc3cccc(S(C)(=N)=O)c3)c2C)cc1 (stereo not shown) [Example 93, 2-(4,4-difluoroazepan-1-yl)-5-(4-methoxyphenyl)-4-methyl-N-(3-(S-methylsulfonimidoyl)phenyl)nicotinamide] | ≤ 5 nM | ≤ 5 nM |
| CNCC(=O)N=[S@](C)(=O)c1cccc(NC(=O)c2c(N3CCCC(F)(F)CC3)ccc(-c3cnn(C)c3)c2C)c1 [Example 175, (R)-6-(4,4-difluoroazepan-1-yl)-2-methyl-3-(1-methyl-1H-pyrazol-4-yl)-N-(3-(S-methyl-N-(methylglycyl)sulfonimidoyl)phenyl)benzamide] | 5 to 50 nM | 5 to 50 nM |
| Cc1c(N2CC(F)(F)C2)cnc(N2CCCC(F)(F)CC2)c1C(=O)Nc1cccc([S@](C)(=N)=O)c1 [Example 149, (R)-2-(4,4-difluoroazepan-1-yl)-5-(3,3-difluoroazetidin-1-yl)-4-methyl-N-(3-(S-methylsulfonimidoyl)phenyl)nicotinamide] | 5 to 50 nM | 5 to 50 nM |
| Cc1nc(-c2cnn(C)c2)nc(N2CCCC(F)(F)CC2)c1C(=O)Nc1cccc([S@](C)(=N)=O)c1 [Example 150, (R)-4-(4,4-difluoroazepan-1-yl)-6-methyl-2-(1-methyl-1H-pyrazol-4-yl)-N-(3-(S-methylsulfonimidoyl)phenyl)pyrimidine-5-carboxamide] | 100 to 200 nM | 100 to 200 nM |
| C[S@@](=N)(=O)c1cc(NC(=O)c2cc(Cl)c(C(F)(F)F)cc2N2CCO[C@@H](C(F)(F)F)C2)ccn1 [Example 217, 5-chloro-N-(2-((R)—S-methylsulfonimidoyl)pyridin-4-yl)-4-(trifluoromethyl)-2-((R)-2-(trifluoromethyl)morpholino)benzamide] | 50 to 100 nM | 50 to 100 nM |

The next lines start with the values.

| IC50 [1] | IC50 [2] | Structure (SMILES) |
| --- | --- | --- |
| ≤ 5 nM | ≤ 5 nM | Cc1nc(N2CCC3(CC2)CC3)c(C(=O)Nc2cccc(S(C)(=N)=O)c2)cc1Cl (stereo not shown) [Example 12, 5-chloro-6-methyl-N-(3-(S-methylsulfonimidoyl)phenyl)-2-(6-azaspiro[2.5]octan-6-yl)nicotinamide] |
| 5 to 50 nM | 5 to 50 nM | C[S@](=N)(=O)c1cccc(NC(=O)c2c(N3CCCC(F)(F)CC3)cnc(C(F)(F)F)c2Cl)c1 [Example 207, (S)-3-chloro-5-(4,4-difluoroazepan-1-yl)-N-(3-(S-methylsulfonimidoyl)phenyl)-2-(trifluoromethyl)isonicotinamide] |
| 5 to 50 nM | 5 to 50 nM | Cc1c(-c2cnn(C)c2)cnc(N2CCCC(F)(F)CC2)c1C(=O)Nc1cccc([S@@](C)(=O)=NC(=O)C2COC2)c1 [Example 54, (R)-2-(4,4-difluoroazepan-1-yl)-4-methyl-5-(1-methyl-1H-pyrazol-4-yl)-N-(3-(S-methyl-N-(oxetane-3-carbonyl)sulfonimidoyl)phenyl)nicotinamide] |
| 5 to 50 nM | 5 to 50 nM | Cc1c(-c2cnn(C(F)F)c2)cnc(N2CCCC(F)(F)CC2)c1C(=O)Nc1cccc([S@](C)(=N)=O)c1 [Example 159, (R)-2-(4,4-difluoroazepan-1-yl)-5-(1-(difluoromethyl)-1H-pyrazol-4-yl)-4-methyl-N-(3-(S-methylsulfonimidoyl)phenyl)nicotinamide] |
| ≤ 5 nM | ≤ 5 nM | Cc1nc(N2CCCC(F)(F)CC2)c(C(=O)Nc2ccnc(S(=N)(N)=O)c2)cc1C(F)(F)F (stereo not shown) [Example 114, 2-(4,4-difluoroazepan-1-yl)-6-methyl-N-(2-sulfamidimidoylpyridin-4-yl)-5-(trifluoromethyl)nicotinamide] |
| ≤ 5 nM | ≤ 5 nM | Cc1c(C(F)(F)F)nnc(N2CCCC(F)(F)CC2)c1C(=O)Nc1cccc([S@@](C)(=O)=NC(=O)[C@@H](C)N)c1 [Example 183, N-(3-((R)-N-(D-alanyl)-S-methylsulfonimidoyl)phenyl)-3-(4,4-difluoroazepan-1-yl)-5-methyl-6-(trifluoromethyl)pyridazine-4-carboxamide] |
| > 200 nM | > 200 nM | Cc1nc(N2CCN(C)CC2)nc(N2CCCC(F)(F)CC2)c1C(=O)Nc1cccc([S@](C)(=N)=O)c1 [Example 157, (R)-4-(4,4-difluoroazepan-1-yl)-6-methyl-2-(4-methylpiperazin-1-yl)-N-(3-(S-methylsulfonimidoyl)phenyl)pyrimidine-5-carboxamide] |
| 5 to 50 nM | 5 to 50 nM | Cc1c(-c2cnn(C)c2)cnc(N2CCCC(F)(F)CC2)c1C(=O)Nc1cccc([S@@](C)(=O)=NC(=O)C2CNC2)c1 [Example 51, (R)-N-(3-(N-(azetidine-3-carbonyl)-S-methylsulfonimidoyl)phenyl)-2-(4,4-difluoroazepan-1-yl)-4-methyl-5-(1-methyl-1H-pyrazol-4-yl)nicotinamide formate] |
| ≤ 5 nM | ≤ 5 nM | Cc1c(C(F)(F)F)cnc(N2CCCC(F)(F)CC2)c1C(=O)Nc1cccc([S@@](C)(=O)=NC(=O)[C@@H](C)O)c1 [Example 193, 2-(4,4-difluoroazepan-1-yl)-N-(3-((R)-N-((R)-2-hydroxypropanoyl)-S-methylsulfonimidoyl)phenyl)-4-methyl-5-(trifluoromethyl)nicotinamide] |
